Laboratory results published in patent US20090143279A1 (priority 2007, published 2009).
Read-outs that look alike come from different tables or passages of the source.

Legend:
nuOXPHOS transcripts = assay type: cell-based, mouse; conditions: for nucOX (composite Z-score): normalized score vs mock-treated (DMSO) wells
OXPHOS gene expression = assay type: cell-based, mouse; conditions: for GE-HTS (composite Z-score): normalized score vs mock-treated (DMSO) wells
[1] = system: cellular dehydrogenase activity; conditions: for MTT (composite Z-score): normalized score vs mock-treated (DMSO) wells
reactive oxygen species = assay type: cell-based, mouse; conditions: for ROS (composite Z-score): normalized score vs mock-treated (DMSO) wells
mtOXPHOS transcripts = assay type: cell-based, mouse; conditions: for mitoOX (composite Z-score): normalized score vs mock-treated (DMSO) wells
C2C12 myotubes = conditions: for Viability (composite Z-score): normalized score vs mock-treated (DMSO) wells
[2] = system: mitochondrial membrane potential; assay type: cell-based, mouse; conditions: for ΔΨm (composite Z-score): normalized score vs mock-treated (DMSO) wells
cytochrome c = assay type: cell-based, mouse; conditions: for cyt c (composite Z-score): normalized score vs mock-treated (DMSO) wells
Chain of cytochrome c (P62897 whole entry): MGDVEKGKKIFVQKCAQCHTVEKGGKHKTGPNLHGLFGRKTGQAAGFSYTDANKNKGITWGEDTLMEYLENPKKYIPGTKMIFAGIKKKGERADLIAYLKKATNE

[3] = composite Z-score vs DMSO, Conc 20 μM
[4] = composite Z-score vs mock-treated (DMSO) wells, Conc 20 μM
[5] = normalized composite Z-score vs mock-treated (DMSO) wells, Conc 20 μM
[6] = 20 μM, composite Z-score vs DMSO
[7] = composite Z-score vs mock-treated (DMSO) wells, concentration of each compound in μM

COc1ccc2c(c1)OC/C(=C\c1ccc(OC)c(O)c1)C2=O [sappanone A dimethyl ether]
nucOX (composite Z-score) (nuOXPHOS transcripts; Conc 20 μM): 0.495 | GE-HTS (composite Z-score) (OXPHOS gene expression; Conc 20 μM): 0.450 | MTT (composite Z-score) ([1]; Conc 20 μM): −1.865 | ROS (composite Z-score) (reactive oxygen species; Conc 20 μM): −2.429 | mitoOX (composite Z-score) (mtOXPHOS transcripts; Conc 20 μM): 0.248 | Viability (composite Z-score) (C2C12 myotubes; Conc 20 μM): −1.045 | ΔΨm (composite Z-score) ([2]; Conc 20 μM): 0.017 | cyt c (composite Z-score) (cytochrome c; Conc 20 μM): −0.664

O=C1CC[C@]23/C=C/C(=O)NCCCCNCCCNC(=O)/C=C/c4ccc(c2c4)O[C@@H]3C1 [lunarine]
nucOX (nuOXPHOS transcripts; [3]): −0.880 | GE-HTS (OXPHOS gene expression; [3]): −0.945 | MTT [1, 3]: −0.938 | ROS (reactive oxygen species; [3]): 0.385 | mitoOX (mtOXPHOS transcripts; [3]): −0.856 | Viability (C2C12 myotubes; [3]): −0.579 | ΔΨm [2, 3]: −0.795 | cyt c (cytochrome c; [3]): 0.685

Cc1cc(O)cc(O)c1C(=O)O [orsellinic acid]
nucOX (nuOXPHOS transcripts; [4]): −0.350 | GE-HTS (OXPHOS gene expression; [4]): −0.348 | MTT [1, 4]: −1.311 | ROS (reactive oxygen species; [4]): 1.236 | mitoOX (mtOXPHOS transcripts; [4]): −0.333 | Viability (C2C12 myotubes; [4]): −0.320 | ΔΨm [2, 4]: −0.846 | cyt c (cytochrome c; [4]): −0.015

Nc1ccccc1C(=O)CC(N)C(=O)O (stereo not drawn) [kynurenine]
nucOX (nuOXPHOS transcripts; [5]): −0.088 | GE-HTS (OXPHOS gene expression; [5]): −0.039 | MTT [1, 5]: −0.912 | ROS (reactive oxygen species; [5]): 1.941 | mitoOX (mtOXPHOS transcripts; [5]): 0.069 | Viability (C2C12 myotubes; [5]): −0.110 | ΔΨm [2, 5]: −0.058 | cyt c (cytochrome c; [5]): 0.162

CN(C(=O)CN(CCO)CC(=O)N(C)C(C)(C)Cc1ccccc1)C(C)(C)Cc1ccccc1 [oxethazaine]
nucOX (nuOXPHOS transcripts): 0.335 | nucOX (nuOXPHOS transcripts; [6]): −0.812 | GE-HTS (OXPHOS gene expression): 0.473 | GE-HTS (OXPHOS gene expression; [6]): −0.739 | MTT [1]: −1.374 | MTT [1, 6]: −1.451 | ROS (reactive oxygen species): 1.092 | ROS (reactive oxygen species; [6]): −0.055 | mitoOX (mtOXPHOS transcripts): 0.609 | mitoOX (mtOXPHOS transcripts; [6]): −0.486 | Viability (C2C12 myotubes): −0.497 | Viability (C2C12 myotubes; [6]): −0.294 | ΔΨm [2]: −0.742 | ΔΨm [2, 6]: 0.173 | cyt c (cytochrome c): −0.550 | cyt c (cytochrome c; [6]): −0.278

O=C(Nc1ccc([N+](=O)[O-])cc1Cl)c1cc(Cl)ccc1O [niclosamide]
nucOX (nuOXPHOS transcripts): −1.007 | nucOX (nuOXPHOS transcripts; [6]): −0.288 | GE-HTS (OXPHOS gene expression): −0.976 | GE-HTS (OXPHOS gene expression; [6]): −1.042 | MTT [1]: −3.816 | MTT [1, 6]: −0.296 | ROS (reactive oxygen species): −3.069 | ROS (reactive oxygen species; [6]): −3.862 | mitoOX (mtOXPHOS transcripts): −0.755 | mitoOX (mtOXPHOS transcripts; [6]): −2.299 | Viability (C2C12 myotubes): −1.410 | Viability (C2C12 myotubes; [6]): −0.944 | ΔΨm [2]: −3.700 | ΔΨm [2, 6]: −4.256 | cyt c (cytochrome c): −3.177 | cyt c (cytochrome c; [6]): −2.947

CC1CC(O)C2OC1CC1C(CC1(C)C)C2C (stereo not drawn) [3,7-epoxycaryophyllan-6-ol]
nucOX (nuOXPHOS transcripts; [5]): −1.203 | GE-HTS (OXPHOS gene expression; [5]): −1.018 | MTT [1, 5]: −1.302 | ROS (reactive oxygen species; [5]): 0.255 | mitoOX (mtOXPHOS transcripts; [5]): −0.407 | Viability (C2C12 myotubes; [5]): −0.644 | ΔΨm [2, 5]: −0.461 | cyt c (cytochrome c; [5]): 0.604

N[C@@H](C(=O)N[C@@H]1C(=O)N2C(C(=O)O)=C(Cl)CS[C@H]12)c1ccccc1 [cefaclor]
nucOX (nuOXPHOS transcripts): 0.535 | nucOX (nuOXPHOS transcripts; [3]): −0.506 | GE-HTS (OXPHOS gene expression): 0.331 | GE-HTS (OXPHOS gene expression; [3]): −0.547 | MTT [1]: −1.329 | MTT [1, 3]: −0.752 | ROS (reactive oxygen species): 0.387 | ROS (reactive oxygen species; [3]): 0.297 | mitoOX (mtOXPHOS transcripts): −0.161 | mitoOX (mtOXPHOS transcripts; [3]): −0.435 | Viability (C2C12 myotubes): 0.762 | Viability (C2C12 myotubes; [3]): −0.091 | ΔΨm [2]: −0.759 | ΔΨm [2, 3]: −0.772 | cyt c (cytochrome c): −0.764 | cyt c (cytochrome c; [3]): 0.231

avocatin A
nucOX (nuOXPHOS transcripts; [7]): −1.066 | GE-HTS (OXPHOS gene expression; [7]): −1.145 | MTT [1, 7]: −0.249 | ROS (reactive oxygen species; [7]): 0.404 | mitoOX (mtOXPHOS transcripts; [7]): −1.140 | Viability (C2C12 myotubes; [7]): 0.133 | ΔΨm [2, 7]: −0.057 | cyt c (cytochrome c; [7]): 0.849

C=C1[C@@H]2CC[C@@]3(C)[C@H](c4ccoc4)OC(=O)C[C@]13O[C@H]1CC(=O)C(C)(C)[C@H](CC(=O)OC)[C@]12C [angolensic acid, methyl ester]
nucOX (nuOXPHOS transcripts; [4]): 0.729 | GE-HTS (OXPHOS gene expression; [4]): 0.827 | MTT [1, 4]: 0.322 | ROS (reactive oxygen species; [4]): 0.465 | mitoOX (mtOXPHOS transcripts; [4]): 0.813 | Viability (C2C12 myotubes; [4]): 1.019 | ΔΨm [2, 4]: 0.163 | cyt c (cytochrome c; [4]): −0.204

CC1(C)CC[C@]2(C(=O)O)CC[C@]3(C)C(=CC[C@@H]4[C@@]5(C)CC[C@H](O)[C@@](C)(CO)[C@@H]5CC[C@]43C)[C@@H]2C1 [hederagenin]
nucOX (nuOXPHOS transcripts): −0.630 | GE-HTS (OXPHOS gene expression): −0.654 | MTT [1]: −1.259 | ROS (reactive oxygen species): 0.385 | mitoOX (mtOXPHOS transcripts): −0.540 | Viability (C2C12 myotubes): 0.310 | ΔΨm [2]: −0.901 | cyt c (cytochrome c): 0.945

O=C(CCCCCCCCCCCCC1CCCC1)Nc1ccc(S(=O)(=O)c2ccc(NC(=O)CCCCCCCCCCCCC3CCCC3)cc2)cc1 [chaulmosulfone]
nucOX (composite Z-score) (nuOXPHOS transcripts; Conc 20 μM): 0.083 | GE-HTS (composite Z-score) (OXPHOS gene expression; Conc 20 μM): 0.157 | MTT (composite Z-score) ([1]; Conc 20 μM): −0.289 | ROS (composite Z-score) (reactive oxygen species; Conc 20 μM): 0.935 | mitoOX (composite Z-score) (mtOXPHOS transcripts; Conc 20 μM): 0.305 | Viability (composite Z-score) (C2C12 myotubes; Conc 20 μM): −0.010 | ΔΨm (composite Z-score) ([2]; Conc 20 μM): −0.993 | cyt c (composite Z-score) (cytochrome c; Conc 20 μM): −0.036
